ChEMBL document CHEMBL5465560, “Selectivity Literature for EUbOPEN Chemogenomic Library” (2024)

Legend:
[1] = molecular target: T1, Ephrin type-B receptor 4 (Homo sapiens) (UniProt P54760); conditions: at 10 µM
T1 sequence (whole entry): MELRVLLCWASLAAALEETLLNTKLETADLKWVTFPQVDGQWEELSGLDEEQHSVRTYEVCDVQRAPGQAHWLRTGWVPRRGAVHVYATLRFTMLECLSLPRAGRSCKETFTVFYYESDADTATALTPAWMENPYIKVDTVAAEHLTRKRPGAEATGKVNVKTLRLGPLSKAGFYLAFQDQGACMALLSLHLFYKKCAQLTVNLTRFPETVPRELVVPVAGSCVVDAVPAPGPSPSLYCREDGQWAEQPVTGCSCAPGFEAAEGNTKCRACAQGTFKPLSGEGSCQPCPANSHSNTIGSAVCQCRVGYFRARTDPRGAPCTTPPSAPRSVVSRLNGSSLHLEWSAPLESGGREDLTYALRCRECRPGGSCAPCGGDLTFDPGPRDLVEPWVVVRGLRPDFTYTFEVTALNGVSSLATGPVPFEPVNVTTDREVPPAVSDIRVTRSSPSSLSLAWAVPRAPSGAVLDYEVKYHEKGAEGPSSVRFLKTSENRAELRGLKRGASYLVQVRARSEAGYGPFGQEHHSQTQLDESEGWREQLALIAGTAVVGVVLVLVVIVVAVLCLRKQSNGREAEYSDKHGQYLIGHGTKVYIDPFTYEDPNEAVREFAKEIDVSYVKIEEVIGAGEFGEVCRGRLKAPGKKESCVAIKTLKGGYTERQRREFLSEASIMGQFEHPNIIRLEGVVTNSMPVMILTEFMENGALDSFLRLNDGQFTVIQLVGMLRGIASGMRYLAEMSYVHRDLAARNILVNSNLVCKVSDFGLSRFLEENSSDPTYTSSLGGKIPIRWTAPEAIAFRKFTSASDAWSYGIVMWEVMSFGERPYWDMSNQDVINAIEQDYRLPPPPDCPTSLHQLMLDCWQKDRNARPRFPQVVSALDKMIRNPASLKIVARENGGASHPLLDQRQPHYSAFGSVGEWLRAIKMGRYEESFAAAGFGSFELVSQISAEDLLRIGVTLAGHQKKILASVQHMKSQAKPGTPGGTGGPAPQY

[2] = molecular target: T2, Phosphorylase b kinase gamma catalytic chain, liver/testis isoform (Homo sapiens) (UniProt P15735); experiment: Selectivity interaction (KinomeScan (DiscoverX)) EUB0000092b PHKG2; conditions: at 10 µM
T2 sequence (whole entry): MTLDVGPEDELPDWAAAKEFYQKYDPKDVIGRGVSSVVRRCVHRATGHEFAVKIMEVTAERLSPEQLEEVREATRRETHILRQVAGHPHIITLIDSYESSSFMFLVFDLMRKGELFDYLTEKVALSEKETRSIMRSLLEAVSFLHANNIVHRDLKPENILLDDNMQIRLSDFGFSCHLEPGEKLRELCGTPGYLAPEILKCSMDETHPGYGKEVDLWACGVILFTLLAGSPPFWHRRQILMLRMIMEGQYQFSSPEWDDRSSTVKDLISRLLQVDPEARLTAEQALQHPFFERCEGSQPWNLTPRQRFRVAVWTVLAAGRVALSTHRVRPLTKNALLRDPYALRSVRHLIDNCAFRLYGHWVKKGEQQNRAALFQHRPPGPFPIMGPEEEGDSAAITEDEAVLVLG

[3] = tested on: Tyrosine-protein kinase ABL1 (Homo sapiens), P00519 [Q252H]; experiment: Selectivity interaction (KinomeScan (DiscoverX)) EUB0000666a ABL1; conditions: at 10 µM
[4] = molecular target: Ribosomal protein S6 kinase alpha-3 (Homo sapiens, UniProt P51812); experiment: Selectivity interaction (ActivX KiNativ screen (kinase selectivity in THP-1 cell lysates)) EUB0000639a RPS6KA3; assay type: subcellular; conditions: lysate, at 5 µM
[5] = molecular target: Cyclin-dependent kinase 1/cyclin B (Homo sapiens) (UniProt P06493+P14635+Q8WWL7+O95067); experiment: Selectivity interaction (SelectScreen profiling (Invitrogen)) EUB0000607a CDK1; assay type: protein-complex assay; conditions: at 2 µM
[6] = molecular target: T3, Serine/threonine-protein kinase TBK1 (Homo sapiens) (UniProt Q9UHD2); experiment: Selectivity interaction (KinomeScan (DiscoverX)) EUB0001049a TBK1; conditions: at 1 µM
T3 sequence (whole entry): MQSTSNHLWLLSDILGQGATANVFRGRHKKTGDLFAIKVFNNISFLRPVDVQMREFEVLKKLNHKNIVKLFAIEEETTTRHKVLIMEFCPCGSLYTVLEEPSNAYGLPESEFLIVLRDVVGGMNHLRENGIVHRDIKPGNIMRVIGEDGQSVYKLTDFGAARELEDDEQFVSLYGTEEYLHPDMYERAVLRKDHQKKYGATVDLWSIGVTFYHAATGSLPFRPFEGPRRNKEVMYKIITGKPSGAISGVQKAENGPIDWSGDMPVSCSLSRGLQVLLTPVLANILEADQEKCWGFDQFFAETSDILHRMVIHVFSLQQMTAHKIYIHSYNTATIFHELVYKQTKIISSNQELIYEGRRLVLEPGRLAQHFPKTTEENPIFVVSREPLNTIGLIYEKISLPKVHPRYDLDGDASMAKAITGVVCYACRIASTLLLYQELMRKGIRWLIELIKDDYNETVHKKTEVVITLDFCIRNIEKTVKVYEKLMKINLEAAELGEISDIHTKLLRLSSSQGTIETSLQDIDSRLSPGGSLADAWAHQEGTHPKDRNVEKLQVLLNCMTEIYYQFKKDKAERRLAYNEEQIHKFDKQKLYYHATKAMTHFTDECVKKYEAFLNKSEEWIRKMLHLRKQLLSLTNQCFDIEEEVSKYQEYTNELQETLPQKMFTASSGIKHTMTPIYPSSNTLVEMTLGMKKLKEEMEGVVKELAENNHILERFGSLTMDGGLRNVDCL

Chain of Ribosomal protein S6 kinase alpha-3 (P51812 whole entry): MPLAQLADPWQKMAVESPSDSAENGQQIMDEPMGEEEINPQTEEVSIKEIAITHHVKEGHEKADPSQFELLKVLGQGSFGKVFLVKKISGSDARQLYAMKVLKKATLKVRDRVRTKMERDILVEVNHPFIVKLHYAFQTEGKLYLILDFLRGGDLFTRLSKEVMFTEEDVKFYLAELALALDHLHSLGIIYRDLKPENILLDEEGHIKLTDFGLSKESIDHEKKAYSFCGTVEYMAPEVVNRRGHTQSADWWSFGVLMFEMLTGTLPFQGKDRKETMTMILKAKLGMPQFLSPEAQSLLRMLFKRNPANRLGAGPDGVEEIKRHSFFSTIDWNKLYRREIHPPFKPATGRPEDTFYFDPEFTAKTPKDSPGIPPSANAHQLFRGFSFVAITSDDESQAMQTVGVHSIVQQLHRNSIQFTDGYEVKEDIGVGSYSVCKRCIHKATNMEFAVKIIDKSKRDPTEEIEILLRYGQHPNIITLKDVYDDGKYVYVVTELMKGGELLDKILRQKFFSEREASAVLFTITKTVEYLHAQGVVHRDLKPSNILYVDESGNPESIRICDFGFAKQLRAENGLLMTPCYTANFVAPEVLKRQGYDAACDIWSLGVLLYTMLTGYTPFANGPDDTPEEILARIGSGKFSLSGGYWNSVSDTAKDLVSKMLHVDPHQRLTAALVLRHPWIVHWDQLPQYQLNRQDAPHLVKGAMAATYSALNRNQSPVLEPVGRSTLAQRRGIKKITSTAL

With `CCN(CC)CCCCNc1ncc2cc(-c3cc(OC)cc(OC)c3)c(NC(=O)NC(C)(C)C)nc2n1` the % of control [1] was 100%.

With `CCC(=O)N1CCN(c2ccc(-n3c(=O)ccc4cnc5ccc(-c6cnc7ccccc7c6)cc5c43)cc2C(F)(F)F)CC1` the % of control [2] was 100%.

Molecule `O=C(NOC[C@H](O)CO)c1ccc(F)c(F)c1Nc1ccc(I)cc1F` has a % of control [3] of 100%.

`CC[C@@H]1[C@H](F)C(=O)N[C@@H]1COc1nccc2cc(C(N)=O)c(OC)cc12` [ZIMLOVISERTIB] was tested, and the % of inhibition [4] was -3%.

In the case of `CNC(=O)Nc1ccc(-c2nc(N3CC4CCC(C3)O4)c3cnn(C4CCC5(CC4)OCCO5)c3n2)cc1`, the % of inhibition [5] is reported as 6%.

`COc1cc(Nc2nc(C)cc(-c3cnn4nc(OC)ccc34)n2)cc(C(F)(F)F)c1` was tested, and the % of control [6] was 80%.
